For six compounds, Emax and EC50 results are on record in US6936585B2, “Corticotropin releasing factor 2 receptor agonists” (priority 2002, dated 2005).

SMILES strings stand for the structures. Peptide text beside a SMILES is read from it.

What is called Emax is the greatest response seen or fitted, relative to the assay's reference. Usually EC50 stands for the concentration giving half of the maximal effect.

Experiment [1] deals with T1, CRF1R (Homo sapiens, UniProt P34998).
T1 sequence (P34998 24-415): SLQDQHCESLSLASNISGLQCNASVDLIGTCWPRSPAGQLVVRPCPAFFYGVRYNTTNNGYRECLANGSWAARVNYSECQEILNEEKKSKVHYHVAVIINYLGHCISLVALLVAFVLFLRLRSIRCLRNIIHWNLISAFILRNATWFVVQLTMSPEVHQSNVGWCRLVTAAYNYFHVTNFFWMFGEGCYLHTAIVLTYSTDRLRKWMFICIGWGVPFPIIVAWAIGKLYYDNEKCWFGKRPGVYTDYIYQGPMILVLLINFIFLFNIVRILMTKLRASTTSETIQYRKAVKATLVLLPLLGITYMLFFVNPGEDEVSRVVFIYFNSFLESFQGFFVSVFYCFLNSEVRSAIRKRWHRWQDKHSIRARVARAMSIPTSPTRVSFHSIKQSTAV
Description: CRF1R agonist activation (EC50 / Emax), called comparative CRF binding. Type of experiment: cell-based. Conditions: for Emax: read-out: CRF1R Emax. In short, it runs like this: (§1)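 Receptor-expressing cells are contacted with test peptide or the vehicle it is dissolved in. Lysates are then assayed for cAMP, or expression of a CRE-coupled reporter is quantitated. Engineered cells carrying receptor-G-protein fusions may replace full-length receptors.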

Experiment [2] addresses T2, CRF2R (Homo sapiens, UniProt Q13324).
T2 sequence (Q13324 1-411): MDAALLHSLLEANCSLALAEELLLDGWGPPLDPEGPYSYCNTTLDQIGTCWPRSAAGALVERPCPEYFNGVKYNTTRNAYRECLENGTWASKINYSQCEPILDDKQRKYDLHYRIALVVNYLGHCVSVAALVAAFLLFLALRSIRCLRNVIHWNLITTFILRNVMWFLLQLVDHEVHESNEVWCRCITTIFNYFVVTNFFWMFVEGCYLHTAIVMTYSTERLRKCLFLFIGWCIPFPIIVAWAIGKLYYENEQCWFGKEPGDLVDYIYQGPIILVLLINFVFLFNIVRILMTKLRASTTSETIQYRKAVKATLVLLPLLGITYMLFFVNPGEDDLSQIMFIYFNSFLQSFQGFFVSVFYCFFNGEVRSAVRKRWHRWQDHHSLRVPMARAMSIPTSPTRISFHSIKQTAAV
Briefly: CRF2R agonist activation (EC50 / Emax), called comparative CRF binding. The format is cell-based. Conditions: for Emax: read-out: CRF2R Emax. In outline:
as §1

Regarding `CC[C@H](C)[C@H](NC(=O)[C@H](C)NC(=O)[C@H](CC(N)=O)NC(=O)[C@H](CCC(N)=O)NC(=O)[C@H](CCC(=O)O)NC(=O)[C@H](C)NC(=O)[C@H](CCCNC(=N)N)NC(=O)[C@H](CCC(=O)O)NC(=O)[C@H](CCCNC(=N)N)NC(=O)[C@H](CCC(N)=O)NC(=O)[C@H](CO)NC(=O)[C@H](CCC(N)=O)NC(=O)[C@@H](NC(=O)[C@H](CCCNC(=N)N)NC(=O)[C@H](C)NC(=O)[C@H](CC(C)C)NC(=O)[C@H](CCC(=O)O)NC(=O)[C@H](CC(C)C)NC(=O)[C@H](CC(C)C)NC(=O)[C@@H](NC(=O)[C@H](CCCNC(=N)N)NC(=O)[C@H](CC(C)C)NC(=O)[C@H](CC(C)C)NC(=O)[C@H](CC(C)C)NC(=O)[C@H](CC(C)C)NC(=O)[C@@H]1CCCN1C(=O)[C@H](CC(C)C)NC(=O)[C@H](CC(=O)O)NC(=O)[C@@H](NC(=O)[C@H](CO)NC(=O)[C@H](CC(C)C)NC(=O)[C@H](CO)NC(=O)[C@@H]1CCCN1C(=O)[C@H](CC(N)=O)NC(=O)[C@@H](N)CC(=O)O)[C@@H](C)CC)[C@@H](C)O)[C@@H](C)O)C(=O)N[C@H](C(=O)N[C@@H](Cc1ccccc1)C(=O)N[C@@H](C)C(=O)N[C@@H](CO)C(=O)N[C@H](C(N)=O)C(C)C)[C@@H](C)CC` [compound 174] (H-DNPSLSIDLPLLLLRTLLELARTQSQRERAEQNAIIFASV-NH2; N-terminus assumed), the Emax stood at 29.1% in experiment [1] and 97.2% in experiment [2].
Turning to `CC[C@H](C)[C@H](NC(=O)[C@H](C)NC(=O)[C@H](CC(N)=O)NC(=O)[C@H](CCC(N)=O)NC(=O)[C@H](CCC(=O)O)NC(=O)[C@H](C)NC(=O)[C@H](CCCNC(=N)N)NC(=O)[C@H](CCC(=O)O)NC(=O)[C@H](CCCNC(=N)N)NC(=O)[C@H](CCC(N)=O)NC(=O)[C@H](CO)NC(=O)[C@H](CCC(N)=O)NC(=O)[C@@H](NC(=O)[C@H](CCCNC(=N)N)NC(=O)[C@H](C)NC(=O)[C@H](CC(C)C)NC(=O)[C@H](CCC(=O)O)NC(=O)[C@H](CC(C)C)NC(=O)[C@H](CC(C)C)NC(=O)[C@@H](NC(=O)[C@H](CCCNC(=N)N)NC(=O)[C@H](CC(C)C)NC(=O)[C@H](CC(C)C)NC(=O)[C@@H](NC(=O)[C@H](CC(C)C)NC(=O)[C@@H]1CCCN1C(=O)[C@H](CC(C)C)NC(=O)[C@H](CC(=O)O)NC(=O)[C@@H](NC(=O)[C@H](CO)NC(=O)[C@H](CC(C)C)NC(=O)[C@H](CO)NC(=O)[C@@H]1CCCN1C(=O)[C@H](CC(N)=O)NC(=O)[C@@H](N)CC(=O)O)[C@@H](C)CC)[C@@H](C)CC)[C@@H](C)O)[C@@H](C)O)C(=O)N[C@H](C(=O)N[C@@H](Cc1ccccc1)C(=O)N[C@@H](C)C(=O)N[C@@H](CO)C(=O)N[C@H](C(N)=O)C(C)C)[C@@H](C)CC` [compound 175] (H-DNPSLSIDLPLILLRTLLELARTQSQRERAEQNAIIFASV-NH2; N-terminus assumed), the figures for the EC50 in experiment [1] (read-out: CRF1R EC50) and in experiment [2] (read-out: CRF2R EC50) were ≥ 1000 nM and 5.42 nM, respectively. For the same compound, the Emax in experiment [1] was determined as 34.8%; in experiment [2], 92.2%.
In the case of `CC[C@H](C)[C@H](NC(=O)[C@H](C)NC(=O)[C@H](CC(N)=O)NC(=O)[C@H](CCC(N)=O)NC(=O)[C@H](CCC(=O)O)NC(=O)[C@H](C)NC(=O)[C@H](CCCNC(=N)N)NC(=O)[C@H](CCC(=O)O)NC(=O)[C@H](CCCNC(=N)N)NC(=O)[C@H](CCC(N)=O)NC(=O)[C@H](CO)NC(=O)[C@H](CCC(N)=O)NC(=O)[C@@H](NC(=O)[C@H](CCCNC(=N)N)NC(=O)[C@H](C)NC(=O)[C@H](CC(C)C)NC(=O)[C@H](CCC(=O)O)NC(=O)[C@H](CC(C)C)NC(=O)[C@H](CC(C)C)NC(=O)[C@@H](NC(=O)[C@H](CCCNC(=N)N)NC(=O)[C@H](CC(C)C)NC(=O)[C@H](CC(C)C)NC(=O)[C@H](CCC(N)=O)NC(=O)[C@H](CC(C)C)NC(=O)[C@@H]1CCCN1C(=O)[C@H](CC(C)C)NC(=O)[C@H](CC(=O)O)NC(=O)[C@@H](NC(=O)[C@H](CO)NC(=O)[C@H](CC(C)C)NC(=O)[C@H](CO)NC(=O)[C@@H]1CCCN1C(=O)[C@H](CC(N)=O)NC(=O)[C@@H](N)CC(=O)O)[C@@H](C)CC)[C@@H](C)O)[C@@H](C)O)C(=O)N[C@H](C(=O)N[C@@H](Cc1ccccc1)C(=O)N[C@@H](C)C(=O)N[C@@H](CO)C(=O)N[C@H](C(N)=O)C(C)C)[C@@H](C)CC` [compound 176] (H-DNPSLSIDLPLQLLRTLLELARTQSQRERAEQNAIIFASV-NH2; N-terminus assumed), the Emax is 26.9% in experiment [1] and 90.2% in experiment [2].
The like results for `CC[C@H](C)[C@H](NC(=O)[C@H](C)NC(=O)[C@H](CC(N)=O)NC(=O)[C@H](CCC(N)=O)NC(=O)[C@H](CCC(=O)O)NC(=O)[C@H](C)NC(=O)[C@H](CCCNC(=N)N)NC(=O)[C@H](CCC(=O)O)NC(=O)[C@H](CCCNC(=N)N)NC(=O)[C@H](CCC(N)=O)NC(=O)[C@H](CO)NC(=O)[C@H](CCC(N)=O)NC(=O)[C@@H](NC(=O)[C@H](CCCNC(=N)N)NC(=O)[C@H](C)NC(=O)[C@H](CC(C)C)NC(=O)[C@H](CCC(=O)O)NC(=O)[C@H](CC(C)C)NC(=O)[C@H](CC(C)C)NC(=O)[C@@H](NC(=O)[C@H](CCCNC(=N)N)NC(=O)[C@H](CC(C)C)NC(=O)[C@H](CC(C)C)NC(=O)[C@H](Cc1ccc(O)cc1)NC(=O)[C@H](CC(C)C)NC(=O)[C@@H]1CCCN1C(=O)[C@H](CC(C)C)NC(=O)[C@H](CC(=O)O)NC(=O)[C@@H](NC(=O)[C@H](CO)NC(=O)[C@H](CC(C)C)NC(=O)[C@H](CO)NC(=O)[C@@H]1CCCN1C(=O)[C@H](CC(N)=O)NC(=O)[C@@H](N)CC(=O)O)[C@@H](C)CC)[C@@H](C)O)[C@@H](C)O)C(=O)N[C@H](C(=O)N[C@@H](Cc1ccccc1)C(=O)N[C@@H](C)C(=O)N[C@@H](CO)C(=O)N[C@H](C(N)=O)C(C)C)[C@@H](C)CC` [compound 177] (H-DNPSLSIDLPLYLLRTLLELARTQSQRERAEQNAIIFASV-NH2; N-terminus assumed) were, in that order, 69.2% and 97.7%.
The like results for `CC[C@H](C)[C@H](NC(=O)[C@H](C)NC(=O)[C@H](CC(N)=O)NC(=O)[C@H](CCC(N)=O)NC(=O)[C@H](CCC(=O)O)NC(=O)[C@H](C)NC(=O)[C@H](CCCNC(=N)N)NC(=O)[C@H](CCC(=O)O)NC(=O)[C@H](CCCNC(=N)N)NC(=O)[C@H](CCC(N)=O)NC(=O)[C@H](CO)NC(=O)[C@H](CCC(N)=O)NC(=O)[C@@H](NC(=O)[C@H](CCCNC(=N)N)NC(=O)[C@H](C)NC(=O)[C@H](CC(C)C)NC(=O)[C@H](CCC(=O)O)NC(=O)[C@H](CC(C)C)NC(=O)[C@H](CC(C)C)NC(=O)[C@@H](NC(=O)[C@H](CCCNC(=N)N)NC(=O)[C@H](CC(C)C)NC(=O)[C@H](CC(C)C)NC(=O)[C@H](Cc1ccccc1)NC(=O)[C@H](CC(C)C)NC(=O)[C@@H]1CCCN1C(=O)[C@H](CC(C)C)NC(=O)[C@H](CC(=O)O)NC(=O)[C@@H](NC(=O)[C@H](CO)NC(=O)[C@H](CC(C)C)NC(=O)[C@H](CO)NC(=O)[C@@H]1CCCN1C(=O)[C@H](CC(N)=O)NC(=O)[C@@H](N)CC(=O)O)[C@@H](C)CC)[C@@H](C)O)[C@@H](C)O)C(=O)N[C@H](C(=O)N[C@@H](Cc1ccccc1)C(=O)N[C@@H](C)C(=O)N[C@@H](CO)C(=O)N[C@H](C(N)=O)C(C)C)[C@@H](C)CC` [compound 178] (H-DNPSLSIDLPLFLLRTLLELARTQSQRERAEQNAIIFASV-NH2; N-terminus assumed) were, in that order, 55.7% and 96.5%.
For `CC[C@H](C)[C@H](NC(=O)[C@H](C)NC(=O)[C@H](CC(N)=O)NC(=O)[C@H](CCC(N)=O)NC(=O)[C@H](CCC(=O)O)NC(=O)[C@H](C)NC(=O)[C@H](CCCNC(=N)N)NC(=O)[C@H](CCC(=O)O)NC(=O)[C@H](CCCNC(=N)N)NC(=O)[C@H](CCC(N)=O)NC(=O)[C@H](CO)NC(=O)[C@H](CCC(N)=O)NC(=O)[C@@H](NC(=O)[C@H](CCCNC(=N)N)NC(=O)[C@H](C)NC(=O)[C@H](CC(C)C)NC(=O)[C@H](CCC(=O)O)NC(=O)[C@H](CC(C)C)NC(=O)[C@H](CC(C)C)NC(=O)[C@@H](NC(=O)[C@H](CCCNC(=N)N)NC(=O)[C@H](CC(C)C)NC(=O)[C@H](CC(C)C)NC(=O)[C@H](Cc1c[nH]cn1)NC(=O)[C@H](CC(C)C)NC(=O)[C@@H]1CCCN1C(=O)[C@H](CC(C)C)NC(=O)[C@H](CC(=O)O)NC(=O)[C@@H](NC(=O)[C@H](CO)NC(=O)[C@H](CC(C)C)NC(=O)[C@H](CO)NC(=O)[C@@H]1CCCN1C(=O)[C@H](CC(N)=O)NC(=O)[C@@H](N)CC(=O)O)[C@@H](C)CC)[C@@H](C)O)[C@@H](C)O)C(=O)N[C@H](C(=O)N[C@@H](Cc1ccccc1)C(=O)N[C@@H](C)C(=O)N[C@@H](CO)C(=O)N[C@H](C(N)=O)C(C)C)[C@@H](C)CC` [compound 179] (H-DNPSLSIDLPLHLLRTLLELARTQSQRERAEQNAIIFASV-NH2; N-terminus assumed) the same measures were 78.9% and 92.5%.
